Source: patent US6444872B1, “Large animal model of invasive pulmonary aspergillosis in an immunocompromised host” (priority 1999, dated 2002)

Assays:
[1] = human, in vivo; cited from earlier work
Aspergillus fumigatus = assay: Beagle model of invasive pulmonary aspergillosis in an immunocompromised host (TBI + steroids, bronchoscopic spore inoculation); assay type: in vivo
Excerpt: 1. The “Right” Animal: While choosing an animal the inventors had to consider that a human/clinical mold infection, such as an Aspergillus infection, usually begins as a localized infection and not as a widespread and diffuse pulmonary infection. To be able to reproducibly inoculate a specified dose of an infectious agent in a limited, defined part of the airways the inventors must have easy access to a particular part of the pulmonary tree. This meant that a large animal, such as dog, pig, sheep or monkey, rather than a rodent or lagomorph should be considered. The beagle, which is accepted by both the NCI and the FDA for safety studies of pharmaceutically active agents prior to entering clinical trials, was favored. This dog is easily accessible from several commercial breeders, and in addition to the selected experimental dogs one could conveniently house extra animal's for donation of both platelets and red cells to be transfused as needed during the supportive care phase of the experiments, i.e. after the mold administration.
2. Immunosuppression: For immunosuppression the inventors chose total body irradiation (TBI) with an X-ray (Cobalt) (XRT) source, administered with the animal under general anesthesia in a specially constructed box to obtain uniform radiation exposure. […] Further, the XRT dose can be calculated such that it gives a window of fairly deep immunosuppression sustained for 3-5 weeks, which should be sufficient for the intended purpose. The XRT was followed with daily oral prednisolone administration to further suppress T-lymphocyte and macrophage function and enhance spreading the infection.
3. Mold Species: More than 90% of human clinical Aspergillus infections are a result of Aspergillus fumigatus infection.
4. Mold Dose: To standardize the mold dosage, the inventors prepared batches of Aspergillus spores that were mixed in agarose and stirred down vigorously in mineral oil to obtain a suspension of spores encapsulated in small agarose beads (the approximate average bead diameter was 20 μm). After washing the beads in 0.5% deoxycholate, they were mixed with glycerol prior to cryopreservation and storage at −70° C. The use of agar beads and other encapsulation methods are also contemplated.
5. Mold Administration: The human clinical infection usually starts as a localized airway infection either in the sinuses or in a part of one lung, and not as a generalized pulmonary infection. The inventors decided to utilize a pediatric bronchoscope to safely and reproducibly introduce the Aspergillus spores in the intermediary (lower) right lung lobe. After standardization of the dose, 1×10^6 spores encapsulated in agarose beads and resuspended in NS were infused at each occasion.
6. Time of Mold Administration: In most human patients, Aspergillus infections occur at a time of leukopenia and profound immunosuppression. The time to develop leukopenia after TBI was very reproducible in the beagles. At day 10-14 days after XRT, when the animal's absolute white blood cell count falls below about 500 per μL (neutrophil count <400 per μL), the mold spore administration was performed. The WBC remain at about <500 per μL till day 25-30 after TBI, at which time the count recovered fairly rapidly in animal's that had not been inoculated with Aspergillus spores, or in beagles who had been inoculated with a dose that was too low to yield progressive infection.
7. Supportive Care: The first few animal's died from a superimposed secondary bacterial infection rather than from the mold infection itself In addition, there were bleeding complications when the dogs' platelet count fell below 10,000 per μL. The inventors therefore decided to utilize prophylactic oral (broad-spectrum) antibiotics and “prophylactic” platelet transfusions. […]

[2] = in vivo; cited from earlier work
[3] = the two dogs that rejected the infection

With `C[C@@H]1[C@H](O)[C@@H](C)/C=C/C=C/C=C/C=C/C=C/C=C/C=C/[C@H](O[C@@H]2O[C@H](C)[C@@H](O)[C@H](N)[C@@H]2O)C[C@@H]2O[C@](O)(C[C@@H](O)C[C@@H](O)[C@H](O)CC[C@@H](O)C[C@@H](O)CC(=O)O[C@H]1C)C[C@H](O)[C@H]2C(=O)O` [AMB, Amphotericin B] as the molecule, how does the cases with nephrotoxicity [1] read?
Its cases with nephrotoxicity is over 75%.

What does the source list for `C[C@@H]1C/C=C/C=C/C=C/C=C/[C@H](O[C@@H]2O[C@H](C)[C@@H](O)[C@H](N)[C@@H]2O)C[C@@H]2O[C@](O)(C[C@@H](O)C[C@H]3O[C@@H]3/C=C/C(=O)O1)C[C@H](O)[C@H]2C(=O)O` [Natamycin]?
outcome of infection (Aspergillus fumigatus; after a 16-day cycle of daily Natamycin treatments): two animal's rejected the infection; life span after fungal inoculation (Aspergillus fumigatus; one animal, expected life span nine days, daily intravenous Natamycin): 17 days; Pneumonia (Aspergillus fumigatus; single dog, 1 x 10^6 spores, TBI 3.0 Gy, steroid 30/10 mg, platelet/antibiotic support): Yes; Complications (outcome) (Aspergillus fumigatus; single dog, survived pneumonia 4 weeks post therapy): Dog survived; necropsy finding (Aspergillus fumigatus; [3]): only signs of healing; time free from resurgence of the mold infection post completion of drug treatment (Aspergillus fumigatus; [3]): one; extended life as compared to untreated animals (Aspergillus fumigatus; therapy instituted a day after Aspergillus inoculum, last 3 beagles, 3.0 Gy TBI): Natamycin extended life by 80% as compared to untreated animals

For `CC[C@]1(O)C[C@@H]2CN(CCc3c([nH]c4ccccc34)[C@@](C(=O)OC)(c3cc4c(cc3OC)N(C)[C@H]3[C@@](O)(C(=O)OC)[C@H](OC(C)=O)[C@]5(CC)C=CCN6CC[C@]43[C@@H]65)C2)C1` [Vinblastine], which “administered dose recovered in the feces after biliary excretion” value [2] is on record?
Its value is “about 10%”.

What about the “dose excreted intact into the urine” value [2] of the same molecule?
The value was “Approximately 15%”.
